Numbers after ± are expanded uncertainties.
Columns and labels:
[1] = Crystal 1; Adiabatic calorimetry
[2] = Molar enthalpy of transition or fusion; conditions: Crystal 1; Adiabatic calorimetry
[3] = molar heat capacity at constant pressure; conditions: 298 K; 101.33 kPa; Liquid; Vacuum adiabatic calorimetry

CCCCn1cc[n+](C)c1.[I-] [1-butyl-3-methylimidazolium iodide]
Triple point temperature [1]: 291.87 ± 0.05 K | Molar enthalpy of transition or fusion [2]: 19 ± 0.2 kJ/mol | molar heat capacity at constant pressure [3]: 310 ± 2.4 J/K/mol
